Entries after “also recorded” stand apart in the source; their conditions may differ.
Tests used:
Assay type in all cases: cell-based
CGR8 mouse ES cells = assay: Secondary screening assay: neuronal differentiation of mouse ES cells, total neurite outgrowth; conditions: 5 days with compound in SR medium, then 4 days N2 medium without compound; vs control cells
Protocol: To perform the secondary screening assay, neuronal differentiation of CGR8 cells was carried out in SR medium (DMEM high glucose supplemented with 15% KO serum (Gibco), non-essential amino acids, penicillin and streptomycin). Cells were plated at 10^5 cells per 10 cm cell culture dish and maintained is SR medium for 5 days with compounds found in the primary screen. Cells were subsequently dissociated and replated at 4×10^4 cells/cm^2 in N2 medium (DMEM high glucose, N2 supplement, 10 ng/ml basic fibroblast growth factor, penicillin and streptomycin) and cultured for four additional days without compound addition. Immunostaining quantification. Immunostaining and nuclear staining quantifications were performed using the MetaXpress software (Molecular devices). Total neurite outgrowth was quantified using the neurite outgrowth analysis module, and total cell numbers were quantified with the count nuclei analysis module. For further studies, 32 compounds were selected with high Fluc/Rluc ratio. A dose-response analysis of Fluc/Rluc ratio was performed in the same conditions as used for the primary screen, using concentrations ranging from 100 nM to 100 μM. […] The amounts of neurons were quantified by calculating total neurite outgrowth identified by β3-tubulin immunoreactivity using an automated imaging system (see Methods above).

[1] = system: human ES cell-derived engineered neural tissues (ENTs); assay: Three-dimensional neuronal differentiation / engineered neural tissues (ENTs) from human ES cells; conditions: for number / density of rosettes in ENT: first steps of ENT formation, 1 month old ENTs; for non-neural cells / tissue within ENT (mesenchyma, dark pigmented zones), homogeneity: macroscopic view
Source text: ENTs are 3-dimensional pieces of tissues derived from embryonic stem cells (ES) which resemble certain layers of human fetal brain.
For three-dimensional neuronal differentiation, 5-10 spheres were generated as described in differentiation protocol 2 and plated on a pre-cut patch of hydrophilic polytetrafluoroethylene (PTFE) membrane (confetti, 6 mm diameter, 0.4 μm, BioCell-Interface, La Chaux-de-Fonds, Switzerland). Next, the membrane was placed in a Millicell®-CM (0.4 μm) Culture Plate Insert (Millipore) on one ml of N2 medium. The medium was changed every 2-3 days. This method has been described for tissue slices previously (Stoppini et al., 1991) and has been recently adapted to ES cell-derived neural tissue by Preynat-Seauve et al. (attached manuscript).
Next, the activity of phenazopyridine was tested on neuronal differentiation in a three-dimensional culture system.

[2] = system: human ES cell-derived neural precursors; assay: Two step differentiation: precursors replated without compound in neuronal differentiation medium
Source text: To investigate the potential of neural precursors generated through phenazopyridine treatment, cells exposed to DMSO or phenazopyridine for four weeks as in Example 2 were replated at low density (5×10^3 cells/cm^2) on polyornithine/laminin coated support in neuronal differentiation medium, and investigated for their phenotype at different time points. Cells were then immunostained for neuronal markers and alkaline phosphatase (marking undifferentiated ES cells) after one week and four weeks of differentiation. Immunostaining was performed for nestin, β3-tubulin, Sox1, Pax6, vimentin, GFAP, CNPase, v-Glut1, GAD67, tyrosine hydroxylase and alkaline phosphatase. […] Two different protocols were used to induce neuronal differentiation of human ES cells. In the first protocol, human ES cells were mechanically dissociated into small aggregates and plated on laminin/polyornithine coated six-well plates. Cells were cultured 2 weeks in human SR medium (DMEM F-12 supplemented with 15% knockout serum (Gibco), non-essential amino acids, penicillin and streptomycin), followed by 4 weeks in N2 medium. Compounds were added throughout these first 6 weeks. Subsequently, cells were mechanically dissociated and replated on polyornithine/laminin-coated 6 well plates. Throughout the text, this first differentiation protocol will be referred to as “differentiation protocol 1”. The second differentiation protocol was derived from previously described differentiation conditions (Nat et al., 2007). In the second differentiation protocol, undifferentiated human ES cells were mechanically dissociated into small aggregates and cultured in suspension on low-attachment six-well plates. For the first 4 days, they were cultured in neuronal induction medium (DMEM F-12, N2 supplement, penicillin and streptomycin), which was changed to simple neuronal proliferation medium (DMEM F-12, N2 supplement, 20 ng/ml bFGF, penicillin and streptomycin) for 2 additional days. Subsequently, aggregates were plated on polyornithine/laminin-coated six-well plates and maintained in simple neuronal proliferation medium for 7 days. Cells were then mechanically dissociated and replated in N2 medium at a density of 2×10^4 cells per cm^2 for two additional weeks. Compounds were added throughout these first 4 weeks. Cells were then replated at a density of 5′000 cells per cm^2 in neuronal differentiation medium (Neurobasal medium, B-27 supplement, BDNF (10 ng/ml), penicillin and streptomycin). Throughout the text, this second differentiation protocol will be referred as to “differentiation protocol 2”. […] To investigate the potential of neuronal precursors generated through phenazopyridine treatment, the inventors devised a two step differentiation protocol. Cells were first treated with 3 μM phenazopyridine for 4 weeks and subsequently replated in the absence of phenazopyridine. For the second step, the inventors cultured cells at low density (5×10^3 cells/cm^2) on polyornithine/laminin-coated support in neuronal differentiation medium and investigated their phenotype at different time points in three independent experiments.

HS401 human ES cells = assay: Differentiation protocol 2 in HS401 cell line; conditions: 3 μM vs DMSO
Protocol: Two different protocols were used to induce neuronal differentiation of human ES cells. In the first protocol, human ES cells were mechanically dissociated into small aggregates and plated on laminin/polyornithine coated six-well plates. Cells were cultured 2 weeks in human SR medium (DMEM F-12 supplemented with 15% knockout serum (Gibco), non-essential amino acids, penicillin and streptomycin), followed by 4 weeks in N2 medium. Compounds were added throughout these first 6 weeks. Subsequently, cells were mechanically dissociated and replated on polyornithine/laminin-coated 6 well plates. Throughout the text, this first differentiation protocol will be referred to as “differentiation protocol 1”. The second differentiation protocol was derived from previously described differentiation conditions (Nat et al., 2007). In the second differentiation protocol, undifferentiated human ES cells were mechanically dissociated into small aggregates and cultured in suspension on low-attachment six-well plates. For the first 4 days, they were cultured in neuronal induction medium (DMEM F-12, N2 supplement, penicillin and streptomycin), which was changed to simple neuronal proliferation medium (DMEM F-12, N2 supplement, 20 ng/ml bFGF, penicillin and streptomycin) for 2 additional days. […]

Nc1ccc(/N=N/c2ccccc2)c(N)n1 [phenazopyridine]
total neurite outgrowth identified by β3-tubulin immunoreactivity (CGR8 mouse ES cells): increase of total neurite outgrowth as compared to control cells
quality of engineered neural tissues (ENTs) ([1]; 3 μM): substantially increased the quality
total number of neural tubes per three-dimensional culture ([1]; 2 weeks and 4 weeks of differentiation, vs control): significant increase
number / density of rosettes in ENT [1]: improved densities of rosettes
number / density of rosettes in ENT ([1]; listed as Phenazopyridine): increased the number of rosettes
non-neural cells / tissue within ENT (mesenchyma, dark pigmented zones), homogeneity ([1]; with vs without compound): decreased the incidence of cells differentiating into non-neuronal cells within ENT
non-neural cells / tissue within ENT (mesenchyma, dark pigmented zones), homogeneity ([1]; with vs without compound, listed as phenazopridine): displayed less mesenchyma (FIG. 3) and fewer dark pigmented zones; also recorded: more homogenous and appeared to contain a reduced amount of non-neural cells
cartilage by immunofluorescent staining of tenascin C in ENTs ([1]; with vs without compound): cartilage was not observed
phenotype 4 weeks after replating ([2]; 3 μM for 4 weeks, then 4 weeks without compound): formed networks of neurons, astrocytes and oligodendrocytes; also recorded: slow-growing cell clusters homogeneously positive for nestin, β3-tubulin, Sox1 and vimentin, together with more mature neurons, astrocytes and oligodendrocyte progenitors
subtypes of neurons ([2]; 3 μM for 4 weeks, then one week without compound): mainly glutamatergic, GABAergic and rarely dopaminergic neurons; also recorded: glutamatergic, GABAergic and—more rarely—TH-positive neurons
phenotype one week after replating ([2]; 3 μM for 4 weeks, then replated without compound): started to differentiate into neurons; also recorded: relatively homogenous monolayer of neural precursors and early neurons with short neurites
alkaline phosphatase-positive (undifferentiated ES) cells ([2]; after replating, vs control): never detected alkaline phosphatase-positive cells
astrocytes or oligodendrocyte precursors (GFAP, CNPase immunostaining) ([2]; one week after replating): did not observe the presence of astrocytes or oligodendrocytes precursors
morphology and dissociation observations in HS401 cell line (HS401 human ES cells): confirmed
